Key:
[1] = octanol/water
[2] = clinical; conditions: human, in vivo, po
[3] = Partition coefficient (logD6.5); assay type: physicochemical; conditions: octanol/water, pH 6.5
[4] = human, in vivo, po
[5] = octanol/water; remark: listed apart in the source
[6] = octanol/water; remark: listed apart in the source
[7] = physchem
[8] = physchem; conditions: octanol/water, pH 6.5
[9] = clinical; conditions: human, in vivo, po; remark: listed apart in the source
[10] = Oral bioavailability in human; assay type: ADME, organism-based; conditions: in vivo
[11] = physchem; conditions: octanol/water, pH 6.5, logD
[12] = octanol/water; remark: listed apart in the source
[13] = clinical; conditions: human, in vivo, po; remark: listed apart in the source

Row | SMILES | delta logD [1] | pKa [7] | logD [8] | bioavailability [9] [%] | also measured
1 | CO/C(O)=C1\C(C)=NC(C)=C(C(=O)OC(C)C)C1c1cccc2nonc12 (stereo not given) | 0 | – | – | – | bioavailability ([2]; F): ≤ 20%; logD [3]: 1.72
2 | Nc1ccn([C@H]2CC[C@@H](CO)O2)c(=O)n1 (stereo in doubt; 1) [ZALCITABINE] | – | – | – | – | F [4]: < 20%; logD [5]: 3.2
3 | Nc1ccn([C@H]2CC[C@@H](CO)O2)c(=O)n1 (stereo in doubt; 232) [ZALCITABINE] | – | – | – | – | delta logD [6]: 0; F [4]: > 80%
4 | CC[C@H]1[C@@H]2C[C@H]3[C@@H]4N(C)c5ccccc5[C@]45C[C@@H]([C@@H]2[C@H]5O)N3[C@@H]1O [AJMALINE] | -0.25 | 6.5 | 2.42 | 49 | –
5 | O=C1C(O)=C([C@H]2CC[C@H](c3ccc(Cl)cc3)CC2)C(=O)c2ccccc21 [ATOVAQUONE] | – | – | – | – | bioavailability [10]: 49%; logD [11]: 3.96
6 | CC(C)NCC(O)COc1ccc(CCOCC2CC2)cc1 (stereo not given) [BETAXOLOL] | – | 9.4 | – | – | delta logD [6]: -0.9; bioavailability ([2]; F): > 80%; logD ([5]; pH 6.5): -0.07
7 | COc1ccccc1OCCNCC(O)COc1cccc2[nH]c3ccccc3c12 (stereo not given) [CARVEDILOL] | -0.9 | 9.3 | 1.31 | 49 | –
8 | O=C(O)CCCc1ccc(N(CCCl)CCCl)cc1 [CHLORAMBUCIL] | – | – | – | – | delta logD [6]: 0.82; bioavailability [2]: > 80%; logD [5]: 2.29
9 | NS(=O)(=O)c1cc2c(cc1Cl)N=CNS2(=O)=O [CHLOROTHIAZIDE] | 0.57 | 6.7 | -0.45 | 49 | –
10 | COc1cc(N)c(Cl)cc1C(=O)NC1CCN(CCCOc2ccc(F)cc2)CC1OC (stereo not given) [CISAPRIDE] | -0.75 | 7.7 | 1.79 | 49 | –
11 | CN1CCC[C@@H]1CCO[C@](C)(c1ccccc1)c1ccc(Cl)cc1 [CLEMASTINE] | -0.89 | 9.2 | 1.65 | 49 | –
12 | COc1ccc2c3c1O[C@H]1[C@@H](O)C=C[C@H]4[C@@H](C2)N(C)CC[C@@]341 [CODEINE] | – | – | – | – | delta logD [6]: -0.8; bioavailability [2]: 79%; logD [5]: -0.28
13 | CCC(C)(C)NCC(O)COc1ccccc1C(=O)CCc1ccccc1 (stereo not given) [DIPRAFENONE] | -0.89 | 9.2 | 0.59 | 49 | –
14 | CN(C)CCC=C1c2ccccc2COc2ccccc21 [DOXEPIN] | -0.82 | 8 | 1.55 | 49 | –
15 | COc1ccc(C(=O)Nc2ccccc2CCC2CCCCN2C)cc1 (stereo not given) [ENCAINIDE] | -0.9 | 10.2 | -0.34 | 49 | –
16 | CC[C@@H](CO)NCCN[C@@H](CC)CO [ETHAMBUTOL] | -0.9 | 9.5 | – | – | logD [12]: -4.02; bioavailability [13]: 79%
17 | NC(N)=Nc1nc(CSCCC(N)=NS(N)(=O)=O)cs1 [FAMOTIDINE] | -0.52 | 7.1 | -1.27 | 49 | –

Row | SMILES | delta logD [1] | pKa [7] | logD [8] | bioavailability [9] [%] | also measured
18 | CC(C)n1c(/C=C/C(O)CC(O)CC(=O)O)c(-c2ccc(F)cc2)c2ccccc21 (stereo not given) [FLUVASTATIN] | 0.9 | 4.5 | 1.42 | 49 | –
19 | O=C(NC1CCN(CCc2c[nH]c3ccccc23)CC1)c1ccccc1 [INDORAMIN] | -0.75 | 7.7 | 1.56 | 49 | –
20 | CC(CCc1ccccc1)NCC(O)c1ccc(O)c(C(N)=O)c1 (stereo not given) [LABETALOL] | -0.9 | 9.3 | 0.35 | 49 | –
21 | CN(Cc1cnc2nc(N)nc(N)c2n1)c1ccc(C(=O)N[C@@H](CCC(=O)O)C(=O)O)cc1 [METHOTREXATE] | 0.9 | – | – | – | logD [12]: -4.55; bioavailability [13]: 79%
22 | Cc1ncc2n1-c1ccc(Cl)cc1C(c1ccccc1F)=NC2 [MIDAZOLAM] | -0.14 | 6.1 | 1.37 | 49 | –
23 | CCOC(=O)Nc1ccc2c(c1)N(C(=O)CCN1CCOCC1)c1ccccc1S2 [MORICIZINE] | -0.21 | 6.4 | 2.73 | 49 | –
24 | CC(C)(C)NCC(O)COc1cccc2c1CC(O)C(O)C2 (stereo not given) [NADOLOL] | -0.9 | 9.7 | – | 49 | logD [12]: -2.46
25 | CCOC(=O)C1=C(C)NC(C)=C(C(=O)OC)C1c1cccc([N+](=O)[O-])c1 (stereo not given) [NITRENDIPINE] | – | – | – | – | delta logD [6]: 0; bioavailability ([2]; F): < 20%; logD [5]: 0.97
26 | C=CCOc1ccccc1OCC(O)CNC(C)C (stereo not given) [OXPRENOLOL] | -0.9 | 9.3 | – | 49 | logD ([12]; pH 6.5): -0.72
27 | OCCN1CCN(CCCN2c3ccccc3Sc3ccc(Cl)cc32)CC1 [PERPHENAZINE] | -0.77 | – | – | – | logD [12]: 2.88; bioavailability [13]: 79%
28 | CN1CCN(CC(=O)N2c3ccccc3C(=O)Nc3cccnc32)CC1 [PIRENZEPINE] | -0.83 | 8.1 | – | 49 | logD [12]: -1.51
29 | CC(C)NC[C@H](O)COc1ccc(O)cc1 [PRENALTEROL] | -0.89 | 9.2 | -1.61 | 49 | –
30 | CCC(=O)O[C@](Cc1ccccc1)(c1ccccc1)[C@H](C)CN(C)C [PROPOXYPHENE] | -0.89 | – | 2.2 | 49 | –
31 | O=C(c1ccc(OCCN2CCCCC2)cc1)c1c(-c2ccc(O)cc2)sc2cc(O)ccc12 [RALOXIFENE] | – | 9 | – | – | delta logD [6]: -0.9; bioavailability ([2]; F): < 20%; logD ([5]; pH 6.5): 1.08
32 | CNC(=C[N+](=O)[O-])NCCSCc1ccc(CN(C)C)o1 [RANITIDINE] | – | – | – | – | delta logD [6]: -0.84; bioavailability ([2]; F): 79%; logD ([5]; pH 6.5): -1.44
33 | CC(NCCc1ccc(O)cc1)C(O)c1ccc(O)cc1 (stereo not given) [RITODRINE] | -0.89 | – | -1 | 49 | –
34 | CSc1ccc2c(c1)N(CCC1CCCCN1C)c1ccccc1S2 (stereo not given) [THIORIDAZINE] | -0.9 | – | 2.9 | 49 | –
